Activity calls are given as the source filed them.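 Rule for the calls: active = fold shift at least 2 as potentiator or at most 0.5 as antagonist, actives on both sides; inactive = fold shift between 0.5 and 2.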
Molecular target: Metabotropic glutamate receptor 3 (Rattus norvegicus) (UniProt P31422)
Assay: rat mGlu3 allosteric modulation, SAR follow-up, selectivity assay for mGlu4 PAM optimization project, cell-based, GIRK thallium flux (AID 623879)
Settings: rat mGlu3 cells, glutamate CRC shift, at 10 µM

Metabotropic glutamate receptor 3 (Rattus norvegicus), sequence (P31422 whole entry, looked up): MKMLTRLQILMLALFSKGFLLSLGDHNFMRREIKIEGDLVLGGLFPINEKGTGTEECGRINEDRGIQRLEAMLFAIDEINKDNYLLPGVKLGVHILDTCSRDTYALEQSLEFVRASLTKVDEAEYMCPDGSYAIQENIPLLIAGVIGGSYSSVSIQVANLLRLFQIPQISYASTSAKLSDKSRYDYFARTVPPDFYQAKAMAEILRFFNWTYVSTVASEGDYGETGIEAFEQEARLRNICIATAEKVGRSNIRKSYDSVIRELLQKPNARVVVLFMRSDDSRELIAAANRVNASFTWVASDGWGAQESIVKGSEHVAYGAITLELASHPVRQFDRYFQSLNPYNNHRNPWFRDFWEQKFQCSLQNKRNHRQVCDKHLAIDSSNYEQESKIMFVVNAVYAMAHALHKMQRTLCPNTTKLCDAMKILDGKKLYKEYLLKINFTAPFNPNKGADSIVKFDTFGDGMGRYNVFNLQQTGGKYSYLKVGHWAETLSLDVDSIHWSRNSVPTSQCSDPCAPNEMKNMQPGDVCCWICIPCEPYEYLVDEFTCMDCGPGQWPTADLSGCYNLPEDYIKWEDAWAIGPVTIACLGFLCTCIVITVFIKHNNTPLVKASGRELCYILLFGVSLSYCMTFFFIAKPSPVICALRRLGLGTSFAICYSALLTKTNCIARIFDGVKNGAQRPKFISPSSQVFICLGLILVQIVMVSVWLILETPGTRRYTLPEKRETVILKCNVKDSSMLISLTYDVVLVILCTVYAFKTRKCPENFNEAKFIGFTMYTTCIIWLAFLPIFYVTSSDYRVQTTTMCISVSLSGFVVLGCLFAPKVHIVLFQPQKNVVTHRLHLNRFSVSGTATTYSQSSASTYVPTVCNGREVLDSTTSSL

fold shift: 0.897 (inactive)
max response (measured here: glutamate max response with compound, stronger effect = higher value): 98.7%
Compound: O=C(Nc1cccc(Cl)c1)c1ccccn1

— PubChem BioAssay AID623879 (Vanderbilt Specialized Chemistry Center, 2012)
